Laboratory results reported in US20250268816A1, “EXTENDED-RELEASE FORMULATION CONTAINING CRESOL” (UNIVERSITY OF MARYLAND, BALTIMORE, priority 2022, published 2025).
Like-named read-outs stand apart in the source and are kept apart here.

Experiments:
[1] = in mice; cited from earlier work
[2] = ART838 release study from ISFGSs into PBS; type: physicochemical
Excerpt: ISFGS turbidity increased with time and with ART838 loading content, and all loaded ISDs […]. The diffusion of the solvents from the depot in the first week was not sufficient for ART838 to diffuse out of the ISFGS due to the hydrophobic interactions between ART838 and PLGA/PLA polymers. The ISFGS system is able to continually release ART838 for 1 month and the ISD form can be tuned to control ART838 release profiles.
This delayed release profile might be beneficial to potentiate antitumor responses initiated by other drug agents. Therefore it is contemplated that the polymeric formulations of the ISFGS system can be altered to tune the ART838 release curve, aiming to modulate the initiation of release while maintaining the stable release observed here. In addition, the ISFGSs can be used with other dimeric ART analogs or other drug compounds, both for administration and for research purposes, for example to analyze cytotoxicity and bioeffects of the loaded ISFGSs using in vitro cell culture models.

[3] = test system: feline infectious peritonitis (FIP); conditions: cited from earlier work
[4] = human patients; cited from earlier work
[5] = Drug release study from the in situ gelling system (ISFGSs); type: physicochemical
Description: FIG. 29 is a graph showing the results of a dexamethasone release study using 6 wt % Dex and 24 wt % Polymer 80 μL.
FIGS. 30A and 30B are graphs showing the effect of polymer composition on the cumulative release of remdesivir from ISFGSs; 3 wt % 80 and 160 uL-24 wt %.
FIGS. 31A and 31B are graphs showing the effect of polymer composition on the cumulative release of GS-441524 from 80 μL of ISFGSs.
FIGS. 32A and 32B are graphs showing the effect of polymer composition on the cumulative release of GS-441524 from 160 μL of ISFGSs.
FIG. 33A and FIG. 33B are a set of graphs showing the effect of polymer composition and solution volume on the cumulative release of artemisinin from ISFGSs.
FIGS. 37A and 37B are graphs showing the cumulative release of gilteritinib from ISFGSs: Gilteritinib 4 wt % Release 80 μL PLGA 50/50 depots.

[6] = in vivo; cited from earlier work
[7] = In vitro cumulative release of insulin from ISFGSs; type: physicochemical; conditions: for time of continuous insulin release: from ISFGSs
Excerpt: The effect of formulation volume in vitro was also studied.

diabetic rats = test: Blood glucose level lowering after subcutaneous injection in diabetic rats; type: in vivo; conditions: subcutaneously injected insulin, 5 IU, within 4 h after the injection
Description: The effect of subcutaneously injected insulin as the therapeutic agent component of the subject drug delivery system on diabetic rats was also studied. More specifically, the effect of an insulin depot prepared and delivered in accordance with the teachings of the subject invention on the cumulative release of insulin was studied.

Compound	release from the in situ gelling system (in words) [5]	half-life [6]	time of continuous insulin release [7]	also measured
C[C@@H]1CCC2[C@@H](C)[C@@H](CC(COP(=O)(Oc3ccccc3)Oc3ccccc3)C[C@H]3O[C@@H]4O[C@@]5(C)CCC6[C@H](C)CCC([C@H]3C)[C@]64OO5)O[C@@H]3O[C@@]4(C)CCC1[C@@]23OO4 (stereo partly drawn) [ART838]	–	–	–	half-life [1]: 191 min; time of continual ART838 release from the ISFGS system [2]: 1 month
N#C[C@@]1(c2ccc3c(N)ncnn23)O[C@H](CO)[C@@H](O)[C@H]1O [GS-441524]	sustained release	–	–	activity against FIP in cell culture (in words) [3]: equivalent; half-life [4]: around 24 hours
CCC(CC)COC(=O)[C@H](C)N[P@](=O)(OC[C@H]1O[C@@](C#N)(c2ccc3c(N)ncnn23)[C@H](O)[C@@H]1O)Oc1ccccc1 [Remdesivir]	–	53.4 min	–	–
C[C@@H]1CC[C@H]2[C@@H](C)C(=O)O[C@@H]3O[C@@]4(C)CC[C@@H]1[C@]32OO4 [artemisinin]	sustained release	–	–	–
Degludec	–	–	7 days	relative insulin release rate (in words) ([7]; comparison between ISFGS formulations): slower
insulin	–	4 to 6 min	7 days	blood glucose level (diabetic rats): about 100 mg·dL^−1
